Experimental data published in patent publication EP0418990A2, “13-Bromo and 13,14-dibromo ergoline, their preparation and their use” (SCHERING AKTIENGESELLSCHAFT, priority 1989, dated 1991).

Tested on: Ratten
Test: Automatic recording of stereotypies in rats (Horowski method), dopamine-agonist effect
Assay type: in vivo, männliche Wistar-Ratten
Conditions: 60 min after treatment
Source text: Die dopaminagonistische Wirkung wurde mit Hilfe der von Horowski beschriebenen Methode der automatischen Registrierung von Stereotypien an Ratten bestimmt (Arzneim. Forsch. 12, 2281-2286, 1978): Unmittelbar nach intraperitonealer Prüfsubstanz- bzw. Vehikelverabreichung werden männliche Wistar-Ratten (90-120 g) einzeln in Zwangskäfige aus Acrylglas gesetzt. Über ein vor dem Kopf der Tiere angebrachtes elektrodynamisches Aufnahmesystem wird die Zahl der Kontakte an einem stählernen Becher mit einem zentralen Metallstab als Folge der stereotypen Kau-, Leck- und Nagebewegungen während 60 Minuten registriert. Die Mittelwerte ± S.E.M. der Anzahl der Kontakte während 60 Minuten für die verschiedenen Behandlungsgruppen, die mit jeweils 12 Tieren besetzt sind, werden berechnet und die Signifikanz der Unterschiede zwischen den Mittelwerten der verschiedenen Prüfsubstanzdosen im Vergleich zur Vehikel-behandelten Kontrollgruppe mit Hilfe der einfachen Varianzanalyse in Verbindung mit dem Dunnett-Test ermittelt.

SMILES: CCN(CC)C(=O)N[C@H]1C[C@@H]2c3cc(Br)cc4[nH]c(C)c(c34)C[C@H]2N(CC)C1 [CH2CH3, 3-(13-Brom-6-ethyl-2-methyl-8α-ergolinyl)-1,1-diethyl-harnstoff]
- Stereotypien(counts pro 60 Minuten) (Mittelwert ± S.E.M.) (dose 0.025 mg/kg intraperitoneal, n=12, vehicle control 2137 ± 849): 1943 ± 472 counts pro 60 Minuten
- Stereotypien(counts pro 60 Minuten) (Mittelwert ± S.E.M.) (dose 0.1 mg/kg intraperitoneal, n=12, vehicle control 2137 ± 849): 2470 ± 548 counts pro 60 Minuten
- Stereotypien(counts pro 60 Minuten) (Mittelwert ± S.E.M.) (dose 0.39 mg/kg intraperitoneal, n=12, xx: p<0.01 vs. control, vehicle control 2137 ± 849): 7499 ± 1342xx counts pro 60 Minuten
- Stereotypien(counts pro 60 Minuten) (Mittelwert ± S.E.M.) (dose 1.56 mg/kg intraperitoneal, n=12, xx: p<0.01 vs. control, vehicle control 2137 ± 849): 8066 ± 1248xx counts pro 60 Minuten
- Stereotypien(counts pro 60 Minuten) (Mittelwert ± S.E.M.) (dose 6.25 mg/kg intraperitoneal, n=12, xx: p<0.01 vs. control, vehicle control 2137 ± 849): 7381 ±1336xx counts pro 60 Minuten
